# pIC50: −log10 of the molar value.
# Tests used:
# [1] = system: SARS-COV-2 Scotland variant (linage: B.1.222); experiment: microbe, parasite or virus in culture; type: cell-based; details: Severe acute respiratory syndrome coronavirus 2, Calu-3
# [2] = system: SARS-COV-2 South Africa variant (linage: B.1.351); experiment: microbe, parasite or virus in culture; type: cell-based; details: Severe acute respiratory syndrome coronavirus 2, Calu-3; read-out: IC50, South African (B.1.351) variant
Structure (SMILES),pIC50 [1],pIC50 [2]
"O=C1Nc2cc(C(F)(F)F)ccc2Oc2ccsc21 [formula (IIa), 7-(trifluoromethyl)benzo[b]-thieno[2,3-f][1,4]oxazepin-10(9H)-one]",5.86,5.52
"CN1C(=O)c2ccccc2[S+]([O-])c2cc([N+](=O)[O-])ccc2S1(=O)=O (stereo not shown) [formula (Ia), 6-methyl-2-nitrodibenzo[d,g]-[1,6,2]dithiazocin-7(6H)-one 5,5, 12-trioxide]",5.58,5.03

# — patent US20240277730A1, “SUPPRESSION OF COVID-19 REPLICATION BY COVID-19 ENTRY INHIBITORS” (Board of Regents of the University of Nebraska, priority 2021, published 2024)
